Laboratory results as given in patent US20260166021A1, “POLYMORPHIC FORMS OF A SOLUBLE EPOXIDE HYDROLASE INHIBITOR AND FORMULATIONS THEREOF” (EicOsis, LLC, priority 2022, published 2026).

Assays:
[1] = Kinetic solubility in sodium lauryl sulfate (SLS) 60 mM, with XRD of remaining solid; format: physicochemical; details: room temperature
Procedure: The mixture was stirred at room temperature with astir bar. The samples (n=3) were collected at each predetermined time points (5, 10, 15, 20, 30, 60, 90, 120, and 180 minutes) and centrifuged. The filtrate was analyzed by H PLC to determine solubility, and the remaining solid was analyzed by XRD as appropriate. Three replicates were performed for each condition.
The advantages of achieving higher degree of supersaturation from milled material (by providing larger surface area) and amorphous material (by providing higher solubility) were offset by phase transformation from Form D to Pattern C (i.e. hydrate form).
In each figure, the top spectrum corresponds to pure Form C, the second figure from the top of the figure corresponds to pure Form D, the third spectrum from the top of the figure corresponds to solid collected following 5 minutes of solubilization, the fourth spectrum from the top corresponds to solid collected following 60 minutes of solubilization, the fifth spectrum from the top corresponds to solid collected following 90 minutes of solubilization, and the bottom spectrum corresponds to solid collected following 180 minutes of solubilization. As indicated by these XRD data, the milled and amorphous materials were converted into Pattern C within 5 min after exposure to the dissolution medium. […]

[2] = Bulk and tapped density (tap density tester); format: physicochemical
Description: Before milling, Form D was screened through a 30-micron mesh sieve. Then, Form D micronized using a 2-inch jet mill 70 psig feed pressure, 40 psig grinding pressure, and a 4.3 g/min powder feed rate. The micronization process provided a 69% yield and 95.6% crystallinity relative to the unmilled material.

CC[C@H](C)C(=O)N1CCC(NC(=O)Nc2ccc(OC(F)(F)F)c(F)c2)CC1 [unmilled Form D, (S)-1-(3-fluoro-4-(trifluoromethoxy)phenyl)-3-(1-(2-methylbutanoyl)piperidin-4-yl)urea]
time to full transition to the hydrate form (Form C) [1]: 60 min
bulk density [2]: 0.54 g/mL
tapped density [2]: 0.61 g/mL
